Measurements taken from US20260042753A1 (Merck Patent GmbH, priority 2019, published 2026).

Experiments:
[1] = target: c-Kit(V654A) (Homo sapiens, UniProt P10721, V654A); assay: c-Kit(V654A) assay; type: biochemical; conditions: Table 1; 200 μM ATP
Protocol: c-Kit(V654A) (N-terminal GST-tagged, recombinant human c-Kit, amino acids 544-end containing the V654A mutation) is incubated with 8 mM MOPS pH 7.0, 0.2 mM EDTA, 250 μM GGMEDIYEFMGGKKK, 10 mM MgAcetate and [gamma-33P-ATP](specific activity approx. 500 cpm/pmol, concentration 200 μM). The reaction is initiated by the addition of the MgATP mix. After incubation for 40 minutes at room temperature, the reaction is stopped by the addition of 3% phosphoric acid solution. 10 μL of the reaction is then spotted onto a P30 filtermat and washed three times for 5 minutes in 75 mM phosphoric acid and once in methanol prior to drying and scintillation counting.

[2] = target: mutant cKIT (560-576 and V654A) in GIST430/654 cell line (Homo sapiens (Human), UniProt P10721, DEL560-576/V654A); assay: Cellular testing of cKIT mutant inhibitors: phospho-Y307-cKIT Luminex assay in GIST430/654 cells; type: cell-based; conditions: Table 1; cKIT autophosphorylation, compounds 45 min; read-out: GIST 430/654 IC50
Protocol: Assay Principle for Cellular Testing of cKIT Mutant Inhibitors
The GIST430/654 cell line expressing mutated constitutively active cKIT receptor tyrosine kinase ([…]560-576 and V654A) was employed for assessing cellular potency of compounds. Cellular activity of mutant cKIT was determined by the degree of cKIT autophosphorylation at tyrosine 307 using a Luminex-based bead assay. GIST430/654 cells were plated with 25,000 cells per well of a 96-well plate in 100 μl medium (85% IMDM/15% FCS supplemented with 100 nM Imatinib). At the following day compounds were added in a serial dilution for 45 min. Then, cells were lysed with 90 μl lysis buffer (20 mM Hepes pH 7.5, 200 mM NaCl, 1.5 mM MgCl2×6H2O, 0.4 mM EDTA, 1% Triton-X-100, 1% Phosphatase-Inhibitor II, 20 mM D-Glycerolphosphat, 0.1% Protease-Inhibitor Cocktail III, 0.01% Benzonase) und lysates were cleared by centrifugation through a 96-well filter plate (0.65 μm). Samples were incubated with Luminex-beads which were coupled with an anti-total cKIT antibody overnight at 4° C. under gentle agitation. For detection of phospho-Y307-cKIT a phosphospecific antibody and a species-specific PE-labelled secondary antibody were added. The amount of phospho-Y307-cKIT was determined in a Luminex 200 instrument measuring 100 events per well within 60 seconds.
Counts from samples treated with compounds were calculated as percent of control from solvent treated (0.3% DMSO) samples. Dose-response curves were fitted and IC50 values were determined using Genedata Screener software.

mutant cKIT (560-576 and V654A) in GIST430/654 cell line, sequence (P10721 other isoform, or with tags, fused parts or gaps V654A/del 1-25/del 560-576 limits assumed): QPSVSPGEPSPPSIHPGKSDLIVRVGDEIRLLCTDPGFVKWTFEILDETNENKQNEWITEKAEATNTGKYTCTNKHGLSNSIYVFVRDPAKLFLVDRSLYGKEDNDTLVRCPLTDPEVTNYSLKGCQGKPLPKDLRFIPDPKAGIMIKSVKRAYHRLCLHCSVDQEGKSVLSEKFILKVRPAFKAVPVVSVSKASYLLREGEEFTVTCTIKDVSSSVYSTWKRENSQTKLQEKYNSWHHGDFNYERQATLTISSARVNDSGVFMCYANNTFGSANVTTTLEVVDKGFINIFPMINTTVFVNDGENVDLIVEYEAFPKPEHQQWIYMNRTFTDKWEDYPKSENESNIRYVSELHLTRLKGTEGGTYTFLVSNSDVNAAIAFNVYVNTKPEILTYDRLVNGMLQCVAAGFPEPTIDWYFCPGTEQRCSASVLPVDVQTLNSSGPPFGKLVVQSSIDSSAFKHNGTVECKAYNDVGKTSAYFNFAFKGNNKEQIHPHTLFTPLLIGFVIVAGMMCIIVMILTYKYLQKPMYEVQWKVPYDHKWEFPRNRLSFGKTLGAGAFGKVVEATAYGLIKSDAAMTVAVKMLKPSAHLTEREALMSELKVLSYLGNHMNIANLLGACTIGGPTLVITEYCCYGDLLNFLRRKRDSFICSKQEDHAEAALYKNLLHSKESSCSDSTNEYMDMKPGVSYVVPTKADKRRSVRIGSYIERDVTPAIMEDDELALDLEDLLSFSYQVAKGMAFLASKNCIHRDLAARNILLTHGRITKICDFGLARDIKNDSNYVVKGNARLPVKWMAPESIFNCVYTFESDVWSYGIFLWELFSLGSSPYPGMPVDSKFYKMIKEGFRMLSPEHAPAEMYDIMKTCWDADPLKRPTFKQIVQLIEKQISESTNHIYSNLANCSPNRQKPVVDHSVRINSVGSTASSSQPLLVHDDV

Structure (SMILES) | IC50 [1] | IC50 [2]
COCCOc1cc2[nH]nc(-c3cc(-c4ccc(N5CCN(C)CC5)cc4)no3)c2cc1F [A37, 5-fluoro-6-(2-methoxyethoxy)-3-{3-[4-(4-methylpiperazin-1-yl)phenyl]-1,2-oxazol-5-yl}-1H-indazole] | 2 nM | 79 nM
COCCOc1cc2[nH]nc(-c3cc(-c4nc(C(=O)N5CC(N6CCOCC6)C5)cs4)no3)c2cc1F [A84, 5-fluoro-6-(2-methoxyethoxy)-3-(3-{4-[3-(morpholin-4-yl)azetidine-1-carbonyl]-1,3-thiazol-2-yl}-1,2-oxazol-5-yl)-1H-indazole] | 35 nM | 1800 nM
COCCOc1cc2[nH]nc(-c3cc(-c4ccc(C(=O)N5CCC(N6CCOCC6)C5)cc4)no3)c2cc1F (centres unmarked) [A153, 5-fluoro-6-(2-methoxyethoxy)-3-(3-{f4-[3-(morpholin-4-yl)pyrrolidine-1l-carbonyl]phenyl}-1,2-oxazol-5-yl)-1H-indazole] | 0.83 nM | 46 nM
COCCOc1cc2[nH]nc(-c3cc(-c4ccc(C(=O)N5CCC56COC6)cc4)no3)c2cc1F [A112, 5-fluoro-6-(2-methoxyethoxy)-3-[3-(4-{6-oxa-1-azaspiro[3.3]heptane-1-carbonyl}phenyl)-1,2-oxazol-5-yl]-1H-indazole] | 1.3 nM | 32 nM
CC(C)(O)C1CCCN1C(=O)c1ccc(-c2cc(-c3n[nH]c4cc(C(F)(F)F)ccc34)on2)cc1 (centres unmarked) [A1, 2-[1-(4-{5-[6-(trifluoromethyl)-1H-indazol-3-yl]-1,2-oxazol-3-yl}benzoyl)pyrrolidin-2-yl]propan-2-ol] | 15 nM | 350 nM
COCCOc1cc2[nH]nc(-c3cc(-c4ccc(C(=O)N5CC(c6nncn6CCOC)C5)cc4)no3)c2cc1F [A195, 5-fluoro-6-(2-methoxyethoxy)-3-[3-(4-{3-[4-(2-methoxyethyl)-4H-1,2,4-triazol-3-yl]azetidine-1-carbonyl}phenyl)-1,2-oxazol-5-yl]-1H-indazole] | 14 nM | 710 nM
COCCOc1cc2[nH]nc(-c3cc(-c4ccc(OCCN5CCOCC5)cc4)no3)c2cc1F [A40, 5-fluoro-6-(2-methoxyethoxy)-3-(3-{4-[2-(morpholin-4-yl)ethoxy]phenyl}-1,2-oxazol-5-yl)-1H-indazole] | 2.7 nM | 140 nM
COCCOc1cc2[nH]nc(-c3cc(-c4ccc(C(=O)N5CCC[C@H]5C(C)(C)O)nc4)no3)c2cc1F [A107, 2-[(2S)-1-(5-{5-[5-fluoro-6-(2-methoxyethoxy)-1H-indazol-3-yl]-1,2-oxazol-3-yl}pyridine-2-carbonyl)pyrrolidin-2-yl]propan-2-ol] | 5.6 nM | 53 nM
COCCOc1cc2[nH]nc(-c3cc(-c4ccc(C(=O)N5CC(N6CCCCC6)C5)cc4)no3)c2cc1F [A177, 5-fluoro-6-(2-methoxyethoxy)-3-(3-{4-[3-(piperidin-1-yl)azetidine-1-carbonyl]phenyl}-1,2-oxazol-5-yl)-1H-indazole] | 1 nM | 65 nM
O=C(c1ccc(-c2cc(-c3n[nH]c4cc(OCCO)c(F)cc34)on2)cc1)N1CCNCC1 [A224, 2-[(5-fluoro-3-{3-[4-(piperazine-1-carbonyl)phenyl]-1,2-oxazol-5-yl}-1H-indazol-6-yl)oxy]ethan-1-ol] | 1.1 nM | 250 nM
COCCOc1cc2[nH]nc(-c3cc(-c4ccc(C(=O)N5CC(N6CCS(=O)(=O)CC6)C5)cc4)no3)c2cc1F [A57, 4-[1-(4-{5-[5-fluoro-6-(2-methoxyethoxy)-1H-indazol-3-yl]-1,2-oxazol-3-yl}benzoyl)azetidin-3-yl]-1lambda6-thiomorpholine-1,1-dione] | 1.9 nM | 180 nM
COc1cc2[nH]nc(-c3cc(-c4ccc(C(=O)N5C[C@H]6COC[C@H]6C5)cc4)no3)c2cc1F [A220, {4-[5-(5-Fluoro-6-methoxy-1H-indazol-3-yl)-isoxazol-3-yl]-phenyl}-(cis)-tetrahydro-furo[3,4-c]pyrrol-5-yl-methanone] | 2.2 nM | 160 nM
COCCOc1cc2[nH]nc(-c3cc(-c4ccc(N5CC[C@@H]6[C@@H]5CCN6C)cc4)no3)c2cc1F (relative stereo) [A126, 3-(3-{4-[(trans)-4-methyl-octahydropyrrolo[3,2-b]pyrrol-1-yl]phenyl}-1,2-oxazol-5-yl)-5-fluoro-6-(2-methoxyethoxy)-1H-indazole] | 1.7 nM | 200 nM
COCCOc1cc2[nH]nc(-c3cc(-c4ccc(C(=O)N5CC(c6ccnc(C)n6)C5)cc4)no3)c2cc1F [A173, 5-fluoro-6-(2-methoxyethoxy)-3-(3-{4-[3-(2-methylpyrimidin-4-yl)azetidine-1-carbonyl]phenyl}-1,2-oxazol-5-yl)-1H-indazole] | 1.1 nM | 30 nM
COCCOc1cc2[nH]nc(-c3cc(-c4ccc(C(=O)N5CCC[C@@H]5CO)cc4)no3)c2cc1F [A52, [(2R)-1-(4-{5-[5-fluoro-6-(2-methoxyethoxy)-1H-indazol-3-yl]-1,2-oxazol-3-yl}benzoyl)pyrrolidin-2-yl]methanol] | 0.82 nM | 55 nM
COCCOc1cc2[nH]nc(-c3cc(-c4ccc(C(=O)N5CCOCC5)cc4)no3)c2cc1F [A104, 5-fluoro-6-(2-methoxyethoxy)-3-{3-[4-(morpholine-4-carbonyl)phenyl]-1,2-oxazol-5-yl}-1H-indazole] | 0.79 nM | 58 nM
COCCOc1cc2[nH]nc(-c3cc(-c4ccc(C(=O)N5CC(c6nc(C)no6)C5)cc4)no3)c2cc1F [A166, 5-fluoro-6-(2-methoxyethoxy)-3-(3-{4-[3-(3-methyl-1,2,4-oxadiazol-5-yl)azetidine-1-carbonyl]phenyl}-1,2-oxazol-5-yl)-1H-indazole] | 0.96 nM | 87 nM
COCCOc1cc2[nH]nc(-c3cc(-c4ccc(C(=O)N5CCOCC5)cc4)on3)c2cc1F [A43, (4-{3-[5-fluoro-6-(2-methoxy-ethoxy)-1H-indazol-3-yl]-isoxazol-5-yl}-phenyl)-morpholin-4-yl-methanone] | 2.2 nM | 120 nM
COCCOc1cc2[nH]nc(-c3cc(-c4ccc(C(=O)N5CC[C@@H](F)C5)cc4)no3)c2cc1F [A27, 5-fluoro-3-(3-{4-[(3R)-3-fluoropyrrolidine-1-carbonyl]phenyl}-1,2-oxazol-5-yl)-6-(2-methoxyethoxy)-1H-indazole] | 1.2 nM | 57 nM
COCCOc1cc2[nH]nc(-c3cc(-c4ccc(C(=O)N5CC6(COC6)C5)cc4)no3)c2cc1F [A74, 5-fluoro-6-(2-methoxyethoxy)-3-[3-(4-{2-oxa-6-azaspiro[3.3]heptane-6-carbonyl}phenyl)-1,2-oxazol-5-yl]-1H-indazole] | 1.3 nM | 52 nM
COCCOc1cc2[nH]nc(-c3cc(-c4ccc(C(=O)N=S(C)(C)=O)cc4)no3)c2cc1F [A35, N-[dimethyl(oxo)-lambda6-sulfanylidene]-4-{5-[5-fluoro-6-(2-methoxyethoxy)-1H-indazol-3-yl]-1,2-oxazol-3-yl}benzamide] | 6.3 nM | 170 nM
COCCOc1cc2[nH]nc(-c3cc(-c4ccc(C(=O)N5CC(N6CCOCC6)C5)c(C)c4)no3)c2cc1F [A171, (4-{5-[5-fluoro-6-(2-methoxy-ethoxy)-1H-indazol-3-yl]-isoxazol-3-yl}-2-methyl-phenyl)-(3-morpholin-4-yl-azetidin-1-yl)-methanone] | 1.4 nM | 63 nM
COCCOc1cc2[nH]nc(-c3cc(-c4ccc(C(=O)N5CC(N6CCOCC6=O)C5)cc4)no3)c2cc1F [A204, 4-[1-(4-{5-[5-fluoro-6-(2-methoxyethoxy)-1H-indazol-3-yl]-1,2-oxazol-3-yl}benzoyl)azetidin-3-yl]morpholin-3-one] | 0.88 nM | 61 nM
COCCOc1cc2[nH]nc(-c3cc(-c4ccc(C(=O)N(C)C)cn4)no3)c2cc1F [A91, 6-{5-[5-fluoro-6-(2-methoxyethoxy)-1H-indazol-3-yl]-1,2-oxazol-3-yl}-N,N-dimethylpyridine-3-carboxamide] | 7.2 nM | 290 nM
C[C@H]1CN(C)CCN1C(=O)c1ccc(-c2cc(-c3n[nH]c4cc(C(F)(F)F)ccc34)on2)cc1 [A50, 3-(3-{4-[(2S)-2,4-dimethylpiperazine-1-carbonyl]phenyl}-1,2-oxazol-5-yl)-6-(trifluoromethyl)-1H-indazole] | 14 nM | 730 nM
